# In the SangsterLogP compilation:
row,Compound,logP
1,CCOC(=O)Oc1cccc2cccnc12,1.73
2,COc1ccncc1,1
3,CN(C)c1cccc2cccnc12,2.73
4,O=S(=O)(c1ccccc1)c1ccc2ncccc2c1,2.57
5,Nc1ccnc2ccccc12,1.63
6,O=[N+]([O-])c1ccnc2ccccc12,2.06
7,CC(=O)c1ccnc2cc(Cl)ccc12,2.62
8,CC(=O)Nc1cnc2ccccc2c1,1.92
9,Cc1cnc(C)cn1,0.63
10,Clc1cccc2nccnc12,1.75
11,Cc1cccc2c1ncc[n+]2[O-],1.2
12,N#Cc1ccc2nccnc2c1,1.01
13,CN(C)c1ccncc1,1.34
14,CCC(=O)Nc1ccnc2cc(Cl)ccc12,2.73
15,CN(C)c1ccc2cccnc2c1,2.71
16,Clc1cccnc1,1.33
17,Cc1cccc(C#N)n1,0.84
18,O=COc1ccccc1,1.26
19,Cc1cnccn1,0.23
20,COc1cnc2ccccc2n1,2.31
21,Nc1cnc2ccccc2c1,1.63
22,Clc1ccc2nccnc2c1,2.1
23,O=[N+]([O-])c1cnc2ccccc2c1,1.97
24,Cc1cnc2ccccc2n1,1.61
25,Nc1ccc2nccnc2c1,0.9
26,COc1ccc2cccnc2c1,2.37
27,Nc1cccc2nccnc12,1.29

row,Compound,logP
1,Cc1ccc2c(c1)N(O)C=CN2O,-0.35
2,CC(=O)Nc1cccc2ncccc12,0.71
3,N#Cc1ccccn1,0.5
4,Cc1cccc2nccnc12,2.04
5,Cc1ccc([N+](=O)[O-])cn1,0.99
6,CC(=O)Nc1cccnc1,0.41
7,N#Cc1ccncc1,0.46
8,O=[N+]([O-])c1cccnc1,0.6
9,Clc1cnc2ccccc2n1,2.23
10,CC(=O)c1cccnc1,0.43
11,CCOC(=O)c1cccc2cccnc12,1.83
12,CCOc1ccc2nccnc2c1,2.22
13,COC(=O)c1ccncc1,0.87
14,Cc1cc2nccnc2cc1C,2.29
15,Clc1ccc2ccccc2n1,2.71
16,CC(=O)c1ccccn1,0.83
17,O=[N+]([O-])c1ccccn1,0.48
18,Nc1cnccn1,-0.07
19,CSc1cnc2ccccc2n1,2.79
20,CC(=O)c1ccc2ccccc2n1,2.54
21,CC(=O)Nc1ccc2ncccc2c1,1.55
22,Cc1cc(C#N)ccn1,0.81
23,Nc1cnc2ccccc2n1,1.5
24,Brc1ccc2cccnc2c1,2.92
25,CS(=O)(=O)c1cnc2ccccc2n1,0.79
26,N#Cc1cccnc1,0.36
27,N#Cc1ccnc2ccccc12,1.98
